Drawing on ChEMBL document CHEMBL5385851, “Natural quinazolinones: From a treasure house to promising anticancer leads” (Eur J Med Chem, 2023), this text covers IC50 and GI50 for 13 compounds.

One experiment concerns L1210. Nature of the experiment: Antiproliferative activity against mouse L1210 cells assessed as cell growth inhibition measured after 72 hrs by MTT assay. Type of experiment: functional, cell-based. To be noted: L1210, 72 h.
Another experiment relates to A549. In words: Antiproliferative activity against human A549 cells assessed as reduction in cell growth in presence of doxorubicin by CellTiter-Glo luminescent assay. Type of experiment: functional, cell-based.
The test system of experiment [1] is HCT-116. Nature of the experiment: Cytotoxicity against human HCT-116 cells assessed as inhibition of cell growth by MTT based colorimetric analysis. It is filed as functional.
Another experiment relates to HepG2. In words: Cytotoxicity against human HepG2 cells assessed as inhibition of cell growth by MTT based colorimetric analysis. Type of experiment: functional.
A further experiment has as its system A-375. Nature of the experiment: Cytotoxicity against human A-375 cells assessed as inhibition of cell growth by MTT based colorimetric analysis. Type of experiment: functional.
In experiment [2] the test system is HL-60. In words: Antiproliferative activity against human HL-60 cells assessed as reduction in cell viability incubated for 72 hrs by MTT assay. It is filed as functional, cell-based. To be noted: HL-60, 72 h.
In experiment [3] the test system is P388. Nature of the experiment: Antiproliferative activity against mouse P388 cells assessed as reduction in cell proliferation incubated for 48 hrs by MTT assay. It is filed as functional, cell-based. To be noted: P388, 48 h.
Experiment [4] has as its system HT-29. In words: Antiproliferative activity against human HT-29 cells assessed as reduction in cell viability after 72 hrs by MTT assay. It is filed as functional, cell-based. Particulars: HT-29, 72 h.
A further experiment concerns NCI-H1975. In words: Antiproliferative activity against human NCI-H1975 cells assessed as cell growth inhibition incubated for 72 hrs by MTT assay. Type of experiment: functional, cell-based. Particulars: NCI-H1975, 72 h.
A further experiment has as its system NCI-H1650. In words: Antiproliferative activity against human NCI-H1650 cells assessed as cell growth inhibition incubated for 72 hrs by MTT assay. Type of experiment: functional, cell-based. To be noted: NCI-H1650, 72 h.
The subject of experiment [5] is MCF7. In words: Antiproliferative activity against human MCF7 cells assessed as cell growth inhibition incubated for 72 hrs by MTT assay. Type of experiment: functional, cell-based. Particulars: MCF7, 72 h.
The subject of experiment [6] is NCI/ADR-RES. In words: Antiproliferative activity against human MCF7ADR cells assessed as cell growth inhibition incubated for 72 hrs by MTT assay. Type of experiment: functional, cell-based.
In another experiment the test system is Hs-578T. Nature of the experiment: Cytotoxicity against human Hs-578T cells assessed as cell growth inhibition. Type of experiment: functional, cell-based.
The subject of experiment [7] is MCF7. In words: Cytotoxicity against human MCF7 cells assessed as reduction in cell growth. Type of experiment: functional, cell-based.
In experiment [8] the test system is NCI-H460. Nature of the experiment: Cytotoxicity against human NCI-H460 cells assessed reduction in cell viability. Type of experiment: functional, cell-based.
The subject of another experiment is SF-268. In words: Antiproliferative activity against human SF-268 cells assessed as reduction in cell growth incubated for 48 hrs by SRB assay. Particulars: SF-268, 48 h. It is filed as functional, cell-based.
The subject of experiment [9] is HL-60. Nature of the experiment: Cytotoxicity against human HL-60 cells assessed as reduction in cell viability. It is filed as functional, cell-based.
Experiment [10] concerns U-251. Nature of the experiment: Growth inhibition of human U-251 cells by sulforhodamine B assay. It is filed as functional. To be noted: time 72 hrs.
Experiment [11] has as its system HT-29. In words: Growth inhibition of human HT-29 cells by SRB assay. Type of experiment: functional.
Another experiment deals with HUVEC. In words: Cytotoxicity against HUVEC cells assessed as reduction in cell viability incubated for 48 hrs by MTT assay. Type of experiment: functional, cell-based. To be noted: Homo sapiens.
In another experiment the test system is SMMC-7721. Nature of the experiment: Anticancer activity against human SMMC-7721 cells assessed as cell growth inhibition incubated for 48 hrs by CCK8 assay. To be noted: SMMC-7721, 48 h. Type of experiment: functional, cell-based.
The subject of the next experiment is SF-295. Nature of the experiment: Growth inhibition against human SF-295 cells incubated for 48 hrs by sulforhodamine B assay. Type of experiment: functional.
The next experiment concerns NCI-N87. Nature of the experiment: Growth inhibition of human NCI-N87 cells assessed as reduction in cell viability measured after 72 hrs by MTT assay. Type of experiment: functional.
The test system of experiment [12] is HL-60. In words: Growth inhibition of human HL-60 cells incubated for 4 days by WST assay. It is filed as functional. To be noted: HL-60, 96 h, time 4 day.
Experiment [13] deals with K562. In words: Growth inhibition of human K562 cells incubated for 48 hrs by sulforhodamine B assay. It is filed as functional.
Experiment [14] deals with HCT-116. Nature of the experiment: Anticancer activity against human HCT-116 cells assessed as cell growth inhibition. Type of experiment: functional.
Experiment [15] deals with DU-145. Nature of the experiment: Growth inhibition of human DU-145 cells incubated for 48 hrs by sulforhodamine B assay. It is filed as functional.
The test system of experiment [16] is MCF7. Nature of the experiment: Antiproliferative activity against human MCF7 cells assessed as cell growth inhibition incubated for 48 hrs by MTT assay. To be noted: MCF7, 48 h. It is filed as functional, cell-based.
Experiment [17] relates to MCF7. Nature of the experiment: Growth inhibition of human MCF7 cells incubated for 48 hrs by SRB assay. Type of experiment: functional.
The next experiment concerns MDA-MB-231. In words: Antiproliferative activity against human MDA-MB-231 cells assessed as reduction in cell viability after 48 hrs by SRB assay. It is filed as functional, cell-based. Particulars: MDA-MB-231, 48 h.
For experiment [18], the system named is P388. In words: Cytotoxicity against mouse P388 cells assessed as inhibition of cell growth incubated for 48 hrs by SRB assay. Type of experiment: functional, cell-based. To be noted: P388, 48 h.
Experiment [19] has as its system HT-29. In words: Cytotoxicity against human HT-29 cells assessed as reduction in cell viability by SRB assay. It is filed as functional, cell-based.
In experiment [20] the target is Indoleamine 2,3-dioxygenase 1 (Homo sapiens, UniProt P14902). In words: Inhibition of IDO1 in HEK293 cells. It is filed as cell-based.
A further experiment relates to Bel-7402. In words: Antiproliferative activity against human Bel-7402 cells assessed as inhibition of cell growth measured after 48 hrs by CCK-8 assay. It is filed as functional, cell-based. To be noted: Bel-7402, 48 h.
Experiment [21] deals with NCI/ADR-RES. Nature of the experiment: Growth inhibition of human MCF7ADR cells. Type of experiment: functional.
Experiment [22] relates to U-251. Nature of the experiment: Growth inhibition of human U-251 cells. It is filed as functional.
Another experiment deals with SW-620. Nature of the experiment: Growth inhibition of human SW620 cells. It is filed as functional.
For another experiment, the system named is NCI-H522. Nature of the experiment: Growth inhibition of human NCI-H522 cells. Type of experiment: functional.
For a further experiment, the system named is M14. In words: Growth inhibition of human M14 cells. It is filed as functional.
In another experiment the test system is SK-OV-3. Nature of the experiment: Growth inhibition of human SK-OV-3 cells by sulforhodamine B assay. Type of experiment: functional.
Experiment [23] concerns DU-145. In words: Growth inhibition of human DU-145 cells by sulforhodamine B assay. Type of experiment: functional.
For the next experiment, the system named is A498. In words: Growth inhibition of human A498 cells by SRB method. Type of experiment: functional.
A further experiment concerns U-937. In words: Cytotoxicity against human U-937 cells assessed reduction in cell growth incubated for 48 hrs by MTT assay. To be noted: U-937, 48 h. It is filed as functional, cell-based.
For experiment [24], the system named is K562. Nature of the experiment: Cytotoxicity against human K562 cells assessed reduction in cell growth incubated for 48 hrs by MTT assay. Type of experiment: functional, cell-based. Particulars: K562, 48 h.
Experiment [25] in a line: Antiproliferative activity against human LA-N-1 cells assessed as cell growth inhibition. Type of experiment: functional, cell-based. To be noted: LAN1.
The test system of the next experiment is SH-SY5Y. Nature of the experiment: Cytotoxicity against human SH-SY5Y cells assessed as reduction in cell viability. Type of experiment: functional, cell-based.
The test system of another experiment is SK-N-DZ. In words: Anticancer activity against human SK-N-DZ cells assessed as cell growth inhibition measured after 72 hrs by DAPI staining based analysis. It is filed as functional.
A further experiment deals with A-431. Nature of the experiment: Anticancer activity against human A-431 cells assessed as reduction of cell viability incubated for 48 hrs by MTT assay. To be noted: A-431, 48 h. Type of experiment: functional, cell-based.
Experiment [26] concerns NCI-H460. Nature of the experiment: Cytotoxicity against human NCI-H460 cells assessed as cell growth inhibition. Type of experiment: functional.
Another experiment concerns ACHN. In words: Growth inhibition of human ACHN cells. It is filed as functional.

SMILES strings stand for the structures. ≈ marks a conversion by molar mass, not a printed value.

Indoleamine 2,3-dioxygenase 1, sequence (P14902 whole entry): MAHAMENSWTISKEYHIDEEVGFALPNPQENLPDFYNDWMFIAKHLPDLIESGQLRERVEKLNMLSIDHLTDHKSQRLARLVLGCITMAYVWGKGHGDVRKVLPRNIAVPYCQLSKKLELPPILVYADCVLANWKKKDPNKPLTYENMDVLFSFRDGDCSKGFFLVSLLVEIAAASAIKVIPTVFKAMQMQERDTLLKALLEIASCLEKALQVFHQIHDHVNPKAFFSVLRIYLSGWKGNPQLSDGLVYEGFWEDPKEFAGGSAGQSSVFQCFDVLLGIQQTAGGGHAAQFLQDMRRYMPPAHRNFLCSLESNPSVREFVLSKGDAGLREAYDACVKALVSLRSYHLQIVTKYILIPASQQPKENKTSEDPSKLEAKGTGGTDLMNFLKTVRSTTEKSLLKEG

`O=c1c2ccccc2nc2n1Cc1cc3cccnc3nc1-2`: the IC50 in the experiment on L1210 is 130 nM.

Consider `CC(C)C[C@H]1NC(=O)[C@@H](C[C@]2(O)c3ccccc3N3C(=O)C(C)(C)N[C@H]32)n2c1nc1ccccc1c2=O`, for which the IC50 is 540 nM with A549; 86 µM in the experiment with HCT-116 [1]; 24 µM in the experiment on HepG2; 75 µM in the experiment on A-375; 52 µg/mL (≈ 104 µM) with HL-60 [2].

In the case of `O=c1c2cccc(O)c2nc2n1CCc1c-2[nH]c2ccccc12`, the IC50 is 12.4 µM in the experiment with P388 [3] and 24.7 µM in the experiment on HT-29 [4].

Take `CN1c2ccccc2C(=O)N2CCc3c([nH]c4ccccc34)C21` (stereo not given): the IC50 came to 5.59 µM in the experiment with NCI-H1975, 4.53 µM with NCI-H1650, 300 nM in the experiment on MCF7 [5] and 470 nM with NCI/ADR-RES [6].

As to `COC1c2cc3ccccc3nc2-c2nc3ccccc3c(=O)n21` (stereo not given), in the experiment with Hs-578T, the IC50 was determined as 9 µg/mL (≈ 28.5 µM).

For the compound `CC(=O)C[C@]1(O)c2ccccc2-n2c1nc1ccccc1c2=O`, the IC50 in the experiment on MCF7 [7] is 33.8 µM; in the experiment on NCI-H460 [8] it was 27 µM; in the experiment on SF-268, 43.9 µM.

`CCO[C@@H]1c2c([nH]c3ccccc23)-c2nc3ccccc3c(=O)n2[C@H]1O`: the IC50 with HL-60 [9] was 8.31 µM.

Consider `O=c1c2ccccc2nc2n1CCc1c-2[nH]c2ccccc12` [RUTAECARPINE], for which the GI50 in the experiment on U-251 [10] came to 20 nM; in the experiment with HT-29 [11], 31.6 µM; with SF-295, 14.1 µM; in the experiment with NCI-N87, 8.41 µM; with HL-60 [12], 19.8 µM; with K562 [13] it was 25.8 µM. For the same compound, the GI50 is 33.9 µM with HCT-116 [14], 31.7 µM with DU-145 [15] and 19.6 µM with MCF7 [17]. The IC50 was determined as 16.5 µM in the experiment with HUVEC; 18.9 µM with SMMC-7721; 74.5 µM with MCF7 [16]; 118 µM in the experiment on MDA-MB-231; 36.8 µM in the experiment on P388 [18]; 118 µM in the experiment on HT-29 [19].

In turn, `O=C1c2ccccc2N[C@H]2[C@H](O)C3C=C(F)C=CC3N12` (stereo not given in full) yielded a 50% inhibitory concentration (IC50) in experiment [20] of 24.3 nM.

Regarding `CC(C)/C=C1\NC(=O)[C@H](CCC(N)=O)n2c1nc1ccccc1c2=O` [AURANTIOMIDE C], in the experiment on Bel-7402, the IC50 came to 62 µg/mL (≈ 182 µM).

In the case of `O=C1c2ccccc2-n2c1nc1ccccc1c2=O` [TRYPTANTHRIN], the GI50 in the experiment with NCI/ADR-RES [21] turned out to be 30 µM; with U-251 [22] it was 100 µM; in the experiment with SW-620, 5 µM; with NCI-H522 it was 15 µM; with M14, 15 µM; in the experiment with SK-OV-3 it was 2500 nM. In addition, the GI50 stood at 400 nM in the experiment on DU-145 [23] and 950 nM with A498. Also, the IC50 was found to be 3.1 µg/mL (≈ 12.5 µM) in the experiment on U-937; 6.3 µg/mL (≈ 25.4 µM) with K562 [24]; 15.8 µM in experiment [25]; 22 µM with SH-SY5Y; 14 µM in the experiment with SK-N-DZ; 9 µM in the experiment on A-431.

For `O=c1c2ccccc2nc2n1CCc1c-2[nH]c2ccc(Br)cc12`, the GI50 with NCI-H460 [26] came to 1550 nM.

In the experiment with ACHN, `CSc1ccc2[nH]c3c(c2c1)CCN1C(=O)c2ccccc2NC31` (stereo not given) returned a GI50 of 80 nM.
